Measurements as given in the NIST ThermoML archive (doi:10.1021/acs.jced.9b00246).

Assay: an = ratio of the nth substance listed
Conditions: 101.3 kPa, Liquid; for viscosity: Concentric cylinders viscometry; for mass density: Vibrating tube method

CCN.Cl [ethylammonium chloride] + NC(N)=O
Conditions | mass density, 313.2 K [kg/m3] | mass density, 323.2 K [kg/m3] | mass density, 333.2 K [kg/m3] | mass density, 343.2 K [kg/m3] | mass density, 353.2 K [kg/m3] | viscosity, 313.2 K [mPa·s] | viscosity, 323.2 K [mPa·s] | viscosity, 333.2 K [mPa·s] | viscosity, 343.2 K [mPa·s] | viscosity, 353.2 K [mPa·s]
a2 = 0.5 | 1103.2 | 1098.1 | 1093.11 | 1088.05 | 1083.06 | 97.8 | 69.6 | 50.8 | 40.9 | 34.8
a2 = 1 | 1141.67 | 1135.99 | 1130.4 | 1124.89 | 1119.43 | 197.7 | 110.1 | 68.3 | 47.6 | 34.8
a2 = 1.94 | 1178.75 | 1172.79 | 1166.88 | 1160.96 | 1155.08 | 105.5 | 67.5 | 49.2 | 37.5 | 28.7
